Key:
velvetleaf [1] = experiment: Test Example 5: herbicidal effect by foliage application, plastic box (Table 20, symbol M); type: in vivo, velvetleaf (Abutilon theophrasti); settings: foliage application, AAH 320 g/ha, evaluated three weeks after application
Procedure, shortened: (§1)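 Plants sown in sterilized diluvial soil and grown 14 days in a greenhouse at 25° C to 30° C, then sprayed on the foliage with the compound's emulsion diluted in water to a predetermined herbicide amount. Injury to weeds and crops scored three weeks after application on a visual rating scale.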

velvetleaf [2] = experiment: Test Example 4: herbicidal effect by soil treatment (Table 19, symbol M); type: in vivo, velvetleaf (Abutilon theophrasti); settings: amount of applied herbicide 320 g/ha
Procedure, shortened: (§2)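 Seeds were sown in sterilized diluvial soil and covered with about 1.5 cm of soil. An emulsion formulation diluted with water to a predetermined herbicide amount was sprayed evenly onto the soil surface. Plants grew in a greenhouse at 25° C. to 30° C., and the effect was scored three weeks after application using criteria from an earlier test.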

blackgrass [3] = experiment: Test Example 5: herbicidal effect by foliage application, plastic box (Table 20, symbol J); type: in vivo, blackgrass (Alopecurus myosuroides); settings: foliage application, AAH 320 g/ha, evaluated three weeks after application
Procedure, shortened: as §1

lambsquarters [4] = experiment: Test Example 4: herbicidal effect by soil treatment (Table 19, symbol O); type: in vivo, lambsquarters (Chenopodium album); settings: amount of applied herbicide 320 g/ha
Procedure, shortened: as §2

Italian ryegrass [5] = experiment: Test Example 4: herbicidal effect by soil treatment (Table 19, symbol K); type: in vivo, Italian ryegrass (Lolium multiflorum); settings: amount of applied herbicide 320 g/ha
Procedure, shortened: as §2

green foxtail [6] = experiment: Test Example 5: herbicidal effect by foliage application, plastic box (Table 20, symbol G); type: in vivo, green foxtail (Setaria viridis); settings: foliage application, AAH 320 g/ha, evaluated three weeks after application
Procedure, shortened: as §1

wild oat [7] = experiment: Test Example 4: herbicidal effect by soil treatment (Table 19, symbol I); type: in vivo, wild oat (Avena fatua); settings: amount of applied herbicide 320 g/ha
Procedure, shortened: as §2

chickweed [8] = experiment: Test Example 5: herbicidal effect by foliage application, plastic box (Table 20, symbol P); type: in vivo, common chickweed (Stellaria media); settings: foliage application, AAH 320 g/ha, evaluated three weeks after application
Procedure, shortened: as §1

wild oat [9] = experiment: Test Example 5: herbicidal effect by foliage application, plastic box (Table 20, symbol I); type: in vivo, wild oat (Avena fatua); settings: foliage application, AAH 320 g/ha, evaluated three weeks after application
Procedure, shortened: as §1

Chinese sprangletop = experiment: Test Example 3: herbicidal effect by foliage application, Wagner pot (Table 18, symbol D); type: in vivo, chinese sprangletop (Leptochloa chinensis); settings: amount of applied herbicide 320 g/ha
Procedure, shortened: (§3)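 Plants were sown in alluvial soil held under 0.1–0.5 cm standing water and grown 14 days in a greenhouse at 25–30 °C. An emulsifiable formulation, water-diluted to the set dose, was then sprayed onto the foliage, and effects were scored three weeks later using previously defined criteria.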

southern crabgrass [10] = experiment: Test Example 4: herbicidal effect by soil treatment (Table 19, symbol F); type: in vivo, southern crabgrass (Digitaria ciliaris); settings: amount of applied herbicide 320 g/ha
Procedure, shortened: as §2

southern crabgrass [11] = experiment: Test Example 5: herbicidal effect by foliage application, plastic box (Table 20, symbol F); type: in vivo, southern crabgrass (Digitaria ciliaris); settings: foliage application, AAH 320 g/ha, evaluated three weeks after application
Procedure, shortened: as §1

barnyard grass [12] = experiment: Test Example 4: herbicidal effect by soil treatment (Table 19, symbol H); type: in vivo, barnyard grass (Echinochloa crus-galli); settings: amount of applied herbicide 320 g/ha
Procedure, shortened: as §2

rice flat sedge = experiment: Test Example 3: herbicidal effect by foliage application, Wagner pot (Table 18, symbol E); type: in vivo, rice flat sedge (Cyperus iria); settings: amount of applied herbicide 320 g/ha
Procedure, shortened: as §3

redroot pigweed [13] = experiment: Test Example 5: herbicidal effect by foliage application, plastic box (Table 20, symbol N); type: in vivo, redroot pigweed (Amaranthus retroflexus); settings: foliage application, AAH 320 g/ha, evaluated three weeks after application
Procedure, shortened: as §1

windgrass [14] = experiment: Test Example 4: herbicidal effect by soil treatment (Table 19, symbol L); type: in vivo, windgrass (Apera spica-venti); settings: amount of applied herbicide 320 g/ha
Procedure, shortened: as §2

windgrass [15] = experiment: Test Example 5: herbicidal effect by foliage application, plastic box (Table 20, symbol L); type: in vivo, windgrass (Apera spica-venti); settings: foliage application, AAH 320 g/ha, evaluated three weeks after application
Procedure, shortened: as §1

persian speedwell [16] = experiment: Test Example 5: herbicidal effect by foliage application, plastic box (Table 20, symbol R); type: in vivo, Persian speedwell (Veronica persica); settings: foliage application, AAH 320 g/ha, evaluated three weeks after application
Procedure, shortened: as §1

lambsquarters [17] = experiment: Test Example 5: herbicidal effect by foliage application, plastic box (Table 20, symbol O); type: in vivo, lambsquarters (Chenopodium album); settings: foliage application, AAH 320 g/ha, evaluated three weeks after application
Procedure, shortened: as §1

Italian ryegrass [18] = experiment: Test Example 5: herbicidal effect by foliage application, plastic box (Table 20, symbol K); type: in vivo, Italian ryegrass (Lolium multiflorum); settings: foliage application, AAH 320 g/ha, evaluated three weeks after application
Procedure, shortened: as §1

redroot pigweed [19] = experiment: Test Example 4: herbicidal effect by soil treatment (Table 19, symbol N); type: in vivo, redroot pigweed (Amaranthus retroflexus); settings: amount of applied herbicide 320 g/ha
Procedure, shortened: as §2

barnyard grass [20] = experiment: Test Example 5: herbicidal effect by foliage application, plastic box (Table 20, symbol H); type: in vivo, barnyard grass (Echinochloa crus-galli); settings: foliage application, AAH 320 g/ha, evaluated three weeks after application
Procedure, shortened: as §1

blackgrass [21] = experiment: Test Example 4: herbicidal effect by soil treatment (Table 19, symbol J); type: in vivo, blackgrass (Alopecurus myosuroides); settings: amount of applied herbicide 320 g/ha
Procedure, shortened: as §2

chickweed [22] = experiment: Test Example 4: herbicidal effect by soil treatment (Table 19, symbol P); type: in vivo, common chickweed (Stellaria media); settings: amount of applied herbicide 320 g/ha
Procedure, shortened: as §2

persian speedwell [23] = experiment: Test Example 4: herbicidal effect by soil treatment (Table 19, symbol R); type: in vivo, Persian speedwell (Veronica persica); settings: amount of applied herbicide 320 g/ha
Procedure, shortened: as §2

barnyard grass [24] = experiment: Test Example 3: herbicidal effect by foliage application, Wagner pot (Table 18, symbol H); type: in vivo, barnyard grass (Echinochloa crus-galli); settings: amount of applied herbicide 320 g/ha
Procedure, shortened: as §3

green foxtail [25] = experiment: Test Example 4: herbicidal effect by soil treatment (Table 19, symbol G); type: in vivo, green foxtail (Setaria viridis); settings: amount of applied herbicide 320 g/ha
Procedure, shortened: as §2

Cc1nn(C)c(=O)c(-c2c(-c3ccc(OC(F)F)cc3)sc3ccc(F)cc23)c1OCC#N [2-303]
M: velvetleaf, herbicidal effect (criteria 0-5) (velvetleaf [1]): 5 (Herbicidal rate of 90% or more (almost completely withered))
herbicidal effect on M: velvetleaf (velvetleaf [2]): 0 (Herbicidal rate of 5% or less (almost no effect))
J: blackgrass, herbicidal effect (criteria 0-5) (blackgrass [3]): 0 (Herbicidal rate of 5% or less (almost no effect))
herbicidal effect on O: lambsquarters (lambsquarters [4]): 0 (Herbicidal rate of 5% or less (almost no effect))
herbicidal effect on K: Italian ryegrass (Italian ryegrass [5]): 0 (Herbicidal rate of 5% or less (almost no effect))
G: green foxtail, herbicidal effect (criteria 0-5) (green foxtail [6]): 5 (Herbicidal rate of 90% or more (almost completely withered))
herbicidal effect on I: wild oat (wild oat [7]): 0 (Herbicidal rate of 5% or less (almost no effect))
P: chickweed, herbicidal effect (criteria 0-5) (chickweed [8]): 5 (Herbicidal rate of 90% or more (almost completely withered))
I: wild oat, herbicidal effect (criteria 0-5) (wild oat [9]): 0 (Herbicidal rate of 5% or less (almost no effect))
herbicidal effect on D: Chinese sprangletop (Chinese sprangletop): 4 (Herbicidal rate of 70% or more and less than 90%)
herbicidal effect on F: southern crabgrass (southern crabgrass [10]): 0 (Herbicidal rate of 5% or less (almost no effect))
F: southern crabgrass, herbicidal effect (criteria 0-5) (southern crabgrass [11]): 0 (Herbicidal rate of 5% or less (almost no effect))
herbicidal effect on H: barnyard grass (barnyard grass [12]): 0 (Herbicidal rate of 5% or less (almost no effect))
herbicidal effect on E: rice flat sedge (rice flat sedge): 3 (Herbicidal rate of 40% or more and less than 70%)
N: redroot pigweed, herbicidal effect (criteria 0-5) (redroot pigweed [13]): 5 (Herbicidal rate of 90% or more (almost completely withered))
herbicidal effect on L: windgrass (windgrass [14]): 0 (Herbicidal rate of 5% or less (almost no effect))
L: windgrass, herbicidal effect (criteria 0-5) (windgrass [15]): 0 (Herbicidal rate of 5% or less (almost no effect))
R: persian speedwell, herbicidal effect (criteria 0-5) (persian speedwell [16]): 5 (Herbicidal rate of 90% or more (almost completely withered))
O: lambsquarters, herbicidal effect (criteria 0-5) (lambsquarters [17]): 5 (Herbicidal rate of 90% or more (almost completely withered))
K: Italian ryegrass, herbicidal effect (criteria 0-5) (Italian ryegrass [18]): 3 (Herbicidal rate of 40% or more and less than 70%)
herbicidal effect on N: redroot pigweed (redroot pigweed [19]): 0 (Herbicidal rate of 5% or less (almost no effect))
H: barnyard grass, herbicidal effect (criteria 0-5) (barnyard grass [20]): 4 (Herbicidal rate of 70% or more and less than 90%)
herbicidal effect on J: blackgrass (blackgrass [21]): 0 (Herbicidal rate of 5% or less (almost no effect))
herbicidal effect on P: chickweed (chickweed [22]): 3 (Herbicidal rate of 40% or more and less than 70%)
herbicidal effect on R: persian speedwell (persian speedwell [23]): 4 (Herbicidal rate of 70% or more and less than 90%)
herbicidal effect on H: barnyard grass (barnyard grass [24]): 5 (Herbicidal rate of 90% or more (almost completely withered))
herbicidal effect on G: green foxtail (green foxtail [25]): 0 (Herbicidal rate of 5% or less (almost no effect))
